How the values were obtained:
L 929 cells = experiment: Confocal fluorescence imaging of L 929 cells stained with 3-HF probes; assay type: cell-based
Description: FIG. 1: (a) Formula and location of 3-HF probes of the prior art F and F2N8 and of the probe of the invention F2N12S in phospholipid bilayers (a). Confocal fluorescence images of L 929 cells stained with probes F (b), F2N8 (c) and F2N12S (d). All images were obtained by collecting fluorescence in the 585-700 nm wavelength range 10 min after probe addition. Scale bar, 10 μm (b).
The cells were washed twice by HBSS before each experiment to eliminate fetal bovine serum. In sorting experiments, cells were resuspended in the binding buffer and labeled with the annexin V-FITC kit. For fluorescence measurements with the probe of the invention F2N12S (fluorometry, flow cytometry and confocal microscopy), cells were resuspended in HBSS with 0.1 μM F2N12S. Then, the cell suspension was placed in a shaker bath for 10 min in the incubator. The staining pattern of the cells was checked with a Confocal Imaging System MRC-1024 (BioRad) to ascertain that fluorescence originates from the plasma membrane.
For collecting cell images, a Laser Scanning Confocal Imaging System MRC-1024 (Bio-Rad) was used. […] Collected images were analyzed by the Amira 3.0 software.
Confocal laser microscopy have been performed on adherent L 929 cells stained with these first generation molecules (FIG. 1.b, c). The obtained fluorescence images reveal a rapid penetration of these dyes inside the cells. […]

HeLa cells = experiment: Flow cytometry F2N12S intensity ratio in HeLa cells; assay type: cell-based; settings: data not shown
Text: (§1) The probe of the invention F2N12S has been combined with PI and the fluorescence intensities of PI have been represented as a function of the T*/N* ratio of F2N12S (FIG. 6c). In this case, the populations of apoptotic and dead cells are clearly discriminated by using the differences in the PI intensities. […] This conclusion was further strengthened when the populations discriminated by the F2N12S/PI couple were colored according to their response with the annexin V-FITC/PI couple (FIG. 6d).

[1] = test system: human lymphoid cell line CEM T; experiment: Toxicity test by flow cytometry using PI; assay type: cell-based; settings: 1 μM F2N12S; 0.5, 1 and 4 hours incubation
Description: The toxicity of the F2N12S molecules was tested by flow cytometry using PI (19 μM). Cells were washed twice as described above and separated in nine batches: three batches for control measurements, three batches with 10^-7 M F2N12S and three batches with 10^-6 M F2N12S. The batches were incubated for 0.5 hour, 1 hour and 4 hours, respectively. The 488 nm line of an argon laser was used as the excitation light source. Emission was collected by using the 630FD22 filter.
Next, the cytotoxicity of the newly synthesized probe, F2N12S, was evaluated on the human lymphoid cell line CEM T. F2N12S was added at 0.1 μM (working concentration) and 1 μM and, incubated for different times (0.5, 1 and 4 hours).

T lymphoblastoid cells = experiment: Flow cytometry analysis with annexin V-FITC, PI and F2N12S; assay type: cell-based, human
Text: FIG. 6: Flow cytometry analysis of T lymphoblastoid cells treated by actinomycin D. Cells were stained by annexin V-FITC, PI and F2N12S. In (a), Annexin V-FITC and PI were selectively excited at 488 nm. Cells are sorted into living, dead and apoptotic cell populations. In (b), F2N12S is selectively excited at 407 nm. Living cells are discriminated from apoptotic and necrotic cells. In (c), the PI fluorescence intensities are plotted versus the T*/N* ratio of F2N12S. Living cells are in green, apoptotic cells are in cyan and dead cells are in orange. In (d), the populations sorted using the F2N12S/PI couple were colored according to their response with the annexin V/PI couple. The wavelengths of maximal transmission and bandwidths of used filters are indicated in brackets.
FIG. 7: Comparison of the intensiometric response of annexin V-FITC (a) with the ratiometric fluorescence response of F2N12S (b). Living, dead and apoptotic cells were identified as described in FIG. 6, by using either the annexin V-FITC/PI (a) or the F2N12S/PI (b) couple of dyes.
FIG. 8: Comparison of the response of annexin V-FITC and F2N12S on non-treated T lymphoblastoid cells stained by annexin V-FITC, PI and F2N12S. In (a), annexin V-FITC and PI were selectively excited at 488 nm. In (b), F2N12S is selectively excited at 407 nm. Cells are sorted into living and dead cell populations.
Human lymphoid CEM T cells were cultured in X-vivo 15 medium (Cambrex, France) at 37° C. in humidified 5% CO2 atmosphere. Cell viability was checked by trypan blue exclusion. Cells were seeded at 5×10^5 cells/ml in the presence or absence of actinomycin D (0.5 μg/ml) for 18 h. Cells were pelleted by centrifugation at 1500 rpm for 5 min and resuspended at 1×10^6 cells/ml in X-vivo 15 medium for experiments.
For the validation of F2N12S in cell cytometry, we used a FASCARIA™ (cell sorter) (BD Biosciences, CA, USA) equipped with an argon laser (488 nm) and a diode laser (407 nm) and emission filters DF30, DF42 and DF20 centered at 530 nm, 585 nm and 610 nm, respectively. The optical pathways corresponding to the argon laser and to the diode laser are independent. Data were analyzed using the FACSDIVA™ (cell sorter) Software (BD Biosciences). The granulation, size and fluorescence intensity were recorded at a rate of ˜1000 cells per second.
T lymphoblastoid cells were treated with actinomycin D and labeled simultaneously by FITC-labeled annexin V, propidium iodide (PI) and F2N12S. […] The emissions of FITC and PI were collected in the spectral regions of 515-545 nm and 600-620 nm, respectively. […] The emission light in this case was collected in two spectral regions: at 515-545 nm to monitor the emission of the N* band and 564-606 nm to collect the emission of the T* band (FIG. 6b). […] The second one is characterized by a high N*/T* intensity ratio (shown in red) and can be assigned to apoptotic and dead cells.
as §1

[2] = actinomycin D-treated cells, probe combined with PI

1-dodecanaminium, N-[[2-[4-Diethylaminophenyl]-3-hydroxychromon-6-yl]-methyl]-N-methyl-N-(3-sulfopropyl)-, inner salt [F2N12S]
time the probes stay in the plasma membrane (whole observation time) (L 929 cells; L 929 cells in HBSS buffer, limited by lifetime of the cells): approx. 1 hour | location of probe fluorescence in stained cells (L 929 cells; adherent L 929 cells, images 10 min after probe addition, 585-700 nm): emission exclusively from the plasma membranes | F2N12S intensity ratio values compared with T lymphoblastoid cells (HeLa cells): very similar | percentage of dead cells [1]: ≤ 4% | percentage of apoptotic cells (T lymphoblastoid cells; [2]): 19.5% | percentage of dead cells (T lymphoblastoid cells; [2]): 48% | percentage of living cells (T lymphoblastoid cells; [2]): 32.5% | percentage of dead cells (T lymphoblastoid cells; non-treated T lymphoblastoid cells): 5%
